In paper PMC3171603 (Bioorganic & medicinal chemistry letters, 2011):

What was measured:
[1] = Cytotoxicity: growth inhibition of uninfected TZM-bl cells; assay type: cell-based; conditions: human
HIV-1 NL4-3 = experiment: HIV-1 infectivity assay; assay type: cell-based; conditions: for anti-HIV activity: TZM-bl cells, statement in words

| Compound | CC50 [1] [µM] | anti-HIV activity (HIV-1 NL4-3) | EC50 (HIV-1 NL4-3; Human immunodeficiency virus 1, NL43, TZM-bl) [µM] |
| --- | --- | --- | --- |
| Cc1cc(=O)oc2c3c(ccc12)SC(C)(C)[C@H](OC(=O)[C@@]12CC[C@@](C)(C(=O)O1)C2(C)C)[C@@H]3OC(=O)[C@@]12CC[C@@](C)(C(=O)O1)C2(C)C [Compound 8a, 4-Methyl-1′-thia-DCK] | > 30.6 |  |  |
| CCc1cc(=O)c2ccc3c(c2o1)[C@H](OC(=O)C12CCC(C)(C(=O)O1)C2(C)C)[C@H](OC(=O)C12CCC(C)(C(=O)O1)C2(C)C)[C@@H](C)S3 (some centres unmarked) [Compound 6b] |  | remarkably reduced or even completely abolished |  |
| Cc1cc(=O)oc2c3c(ccc12)SC(C)(C)[C@@H](OC(=O)[C@@]12CC[C@@](C)(C(=O)O1)C2(C)C)[C@H]3OC(=O)[C@@]12CC[C@@](C)(C(=O)O1)C2(C)C [Compound 8b] |  | remarkably reduced or even completely abolished |  |
| CCc1cc(=O)c2ccc3c(c2o1)[C@@H](OC(=O)C12CCC(C)(C(=O)O1)C2(C)C)[C@@H](OC(=O)C12CCC(C)(C(=O)O1)C2(C)C)C(C)(C)O3 (some centres unmarked) [Compound 2-Ethyl-DCP, 2-ethyl-DCP, reference compound] | 14.3 |  | 0.12 |
